Experimental data reported in US10228378B2, “Diagnostic and therapeutic methods and products related to anxiety disorders” (The University of Vermont and State Agricultural College, priority 2011, dated 2019).
Where “and” joins values, the source holds several entries; their conditions need not be identical. Equal values may be shown once. Entries after “also recorded” stand apart in the source; their conditions may differ. No end group written: not given here.

Columns and labels:
[1] = tested on: Sprague-Dawley rats; experiment: Elevated plus-maze after chronic BNST PACAP(6-38) infusion during repeated variate stress; format: in vivo, rat
Procedure: Similar procedures were followed for chronic infusions. Once the BNST cannulae (Plastics One, Roanoke, Va.; No. 328OP/SPC) and skullcap were in place, the cannulae were attached to a single bifurcation connector (Plastics One, Roanoke, Va.; No. 21y) using 3 mm catheter tubing (Alzet, Cupertino, Calif.: OC 1.14 mm, ID 0.69 mm). The bifurcation connector was attached to 6.7 cm of catheter tubing attached to a mini-osmotic pump (Alzet, Cupertino, Calif.; No. 2002, 200 μl volume, 0.5 μl/h) containing either antagonist PACAP(6-38) (American Peptide Co., Sunnyvale, Calif.; 75 μM) or vehicle (0.05% BSA in saline). Long term PACAP(6-38) stability at 37° C. was assessed separately by daily aliquot removal for intact and amidated peptide radioimmunoassays. Peptide loss was 4%/day; final minipump PACAP(6-38) concentration at the end of the study was approximately 40 μM. […] The rats were returned to their home cages for 6 day postsurgical recovery; all rats were monitored for food/water intake and weighed daily. […]
(§1) A plus maze of black painted wood and elevated 74 cm from the floor consisted of two opposing open and two opposing closed arms (each arm 60 cm long and 9 cm wide), which extended perpendicularly from a central square platform (9×9 cm). […] The sessions were captured digitally, and the time spent in the open and closed arms and the total number of crosses into the open arms were scored. […]

[2] = tested on: Sprague-Dawley rats; experiment: Novel object exploration test after chronic BNST PACAP(6-38) infusion during repeated variate stress; format: in vivo, rat; conditions: for effect on stress induced anxiety-related responses, novel object test: chronic BNST infusion, stressed rats
Procedure: (§2) Similar procedures were followed for chronic infusions. Once the BNST cannulae (Plastics One, Roanoke, Va.; No. 328OP/SPC) and skullcap were in place, the cannulae were attached to a single bifurcation connector (Plastics One, Roanoke, Va.; No. 21y) using 3 mm catheter tubing (Alzet, Cupertino, Calif.: OC 1.14 mm, ID 0.69 mm). The bifurcation connector was attached to 6.7 cm of catheter tubing attached to a mini-osmotic pump (Alzet, Cupertino, Calif.; No. 2002, 200 μl volume, 0.5 μl/h) containing either antagonist PACAP(6-38) (American Peptide Co., Sunnyvale, Calif.; 75 μM) or vehicle (0.05% BSA in saline). Long term PACAP(6-38) stability at 37° C. was assessed separately by daily aliquot removal for intact and amidated peptide radioimmunoassays. Peptide loss was 4%/day; final minipump PACAP(6-38) concentration at the end of the study was approximately 40 μM. All catheters were filled with vehicle to delay antagonist infusion into the BNST before the repeated variate stress procedure. The minipumps were primed according to manufacturer's instructions and secured subcutaneously in the interscapular space. The rats were returned to their home cages for 6 day postsurgical recovery; all rats were monitored for food/water intake and weighed daily.
Following acclimation or postsurgery recovery, each animal was randomly assigned to either a control or chronically stressed group. Control group animals remained in their home cages until euthanasia. […]
To determine whether BNST PACAP receptor signaling mediates the behavioral consequences of repeated stress, osmotic minipumps were attached to bilateral indwelling cannulae to chronically infuse the BNST with PACAP(6-38), a PAC1 receptor antagonist, during the seven day repeated variate stress procedure (see above, FIG. 13A). Animal weight and food intake were monitored daily during the entire duration of the experiment, and the animals were evaluated on the elevated plus-maze and novel-object exploration tests 24-48 hours after the last stressor exposure. […]

[3] = Body weight during chronic BNST PACAP(6-38) infusion and repeated variate stress; format: in vivo, rat
Procedure: as §2, with “The minipumps were primed according to manufacturer's instructions and secured subcutaneously in the interscapular space.” left out, “daily. […]” for “daily.”
Weight data were analyzed using a 2×2×7 mixed ANOVA with stress and antagonist treatment as between subjects variables and percent weight change during the stress period as within subjects variables. […]

[4] = Long term PACAP(6-38) stability at 37° C. by radioimmunoassay; format: physicochemical
Procedure: as §2

[5] = tested on: ADCYAP1 transcripts; experiment: Quantitative PCR of ADCYAP1 transcripts in BNST of ovarectomized female rats after estradiol implants; format: in vivo, rat; conditions: OVX female rats, 21-day continuous release pellets, vs control implants
Source text: (§3) To establish the relationship between PACAP/PAC1 receptors and estrogen in a validated model of sex hormone regulation, estrogen-induced changes in ADCYAP1 and ADCYAP1R1 transcripts in the bed nucleus of stria terminalis (BNST) in female rats was examined. The BNST is a component of the extended amygdala that is subject to significant gonadal hormonal control. In rodents, it is critical for emotional behavior, mediating stress responses and the light-enhanced startle response. Quantitative PCR was performed (Hammack et al., Psychoneuroendocrinology 34, 833-43 (2009); Girard et al., J Neurochem 99(2): 499-513 (2006); Braas et al., Peptides September 28(9):1856-70 (2007)). Rats were implanted with 21-day continuous release pellets for delivery of estrogen. After rat euthanasia, the different brain regions were quickly dissected and frozen on dry ice. The tissues were homogenized in Stat-60 total RNA/mRNA isolation reagent (Tel-Test “B”, Friendswood, Tex.). […] Real-time quantitative PCR methods and oligonucleotide primers were exactly as described previously. The melting profiles for amplified DNA fragments were performed to verify unique product amplification in the quantitative PCR assays. […]

[6] = tested on: ADCYAP1R1 transcripts; experiment: Quantitative PCR of ADCYAP1R1 transcripts in BNST of ovarectomized female rats after estradiol implants; format: in vivo, rat; conditions: OVX female rats, 21-day continuous release pellets, vs control implants
Source text: as §3

[7] = tested on: Sprague-Dawley rats; experiment: Elevated plus maze after acute BNST PACAP38 infusion; format: in vivo, rat; conditions: BNST infusion 1 μg/0.5 μl vs vehicle
Source text: For acute infusion studies, rats were anesthetized with isoflurane vapor and secured in a stereotaxic apparatus. After skin incision, the skull was exposed and four screws were inserted to provide skullcap stability. Two stainless steel cannulae (26 gauge, Plastics One, Roanoke, Va.) were lowered at a 20 degree angle just above the anterolateral bed nucleus of the stria terminalis (BNST), from bregma in mm; AP=−0.3, ML=±3.8 and DV=−5.3 from the surface of the dura. A skullcap was created with dental cement to hold the cannulae in place. […]
as §1
To further characterize the behavioral consequences of BNST PACAP38 infusion, rats were implanted with bilateral cannulae targeted at the BNST. […] Consistent with an anxiogenic effect of BNST PACAP on baseline acoustic startle responding, BNST PACAP38 infusion was anxiogenic on the elevated-plus maze as measured by open arm time (FIG. 12A, df=8, t=3.3, p=0.01).

[8] = Body weight after acute BNST PACAP38 infusion; format: in vivo, rat; conditions: 24 hours after BNST infusion
Source text: For acute infusion studies, rats were anesthetized with isoflurane vapor and secured in a stereotaxic apparatus. After skin incision, the skull was exposed and four screws were inserted to provide skullcap stability. Two stainless steel cannulae (26 gauge, Plastics One, Roanoke, Va.) were lowered at a 20 degree angle just above the anterolateral bed nucleus of the stria terminalis (BNST), from bregma in mm; AP=−0.3, ML=±3.8 and DV=−5.3 from the surface of the dura. A skullcap was created with dental cement to hold the cannulae in place. One week after cannulation, the rats were acutely infused bilaterally into the BNST with PACAP38 (American Peptide Co., Sunnyvale, Calif.; 0.1, 0.5 or 1 μg in 0.5 μl) or saline/bovine serum albumin (BSA) vehicle; the infusion cannulae were left in place for 1 min before removal.
To further characterize the behavioral consequences of BNST PACAP38 infusion, rats were implanted with bilateral cannulae targeted at the BNST. One week following implantation, rats received BNST infusions of PACAP38 (1 μg/0.5 μl) or vehicle, and were tested for anxiety-like responses. Consistent with an anxiogenic effect of BNST PACAP on baseline acoustic startle responding, BNST PACAP38 infusion was anxiogenic on the elevated-plus maze as measured by open arm time (FIG. 12A, df=8, t=3.3, p=0.01).

[9] = chronic BNST infusion by minipump (75 μM, 0.5 μl/h), stressed and non-stressed rats

Which “anxiety-like behavior on elevated plus maze” value [1, 9] does the source give for “Phe-Thr-Asp-Ser-Tyr-Ser-Arg-Tyr-Arg-Lys-Gln-Met-Ala-Val-Lys-Lys-Tyr-Leu-Ala-Ala-Val-Leu-Gly-Lys-Arg-Tyr-Lys-Gln-Arg-Val-Lys-Asn-Lys (FTDSYSRYRKQMAVKKYLAAVLGKRYKQRVKNK) [PACAP(6-38)]” here?
Its value is “anxiolytic”.

What about the “effect on stress induced anxiety-related responses, elevated plus-maze” value ([1]; chronic BNST infusion, stressed rats) of the same compound?
Its value is “attenuated the stress induced anxiety-related responses”.

And the “anxiety-like behavior on novel object test” value [2, 9]?
Its value is “anxiolytic”.

And the “effect on stress induced anxiety-related responses, novel object test” value [2]?
Its value is “reverse the anxiogenic effect of stress”.

And the “effect on stress induced anxiety-related responses, novel object test” value ([2]; listed as PACAP receptor antagonist)?
The value was “attenuated the stress induced anxiety-related responses”.

What about the “effect on body weight, non-stressed rats” value ([3]; chronic BNST infusion, no stress) of the same compound?
The value was “no apparent effects; also recorded: gained weight steadily”.

What about the “effect on weight gain, stressed rats” value ([3]; continuous BNST infusion during seven day repeated variate stress) of the same compound?
Its value is “blocked the stress-induced changes in weight gain; also recorded: gained weight comparable to controls”.

What about the Peptide loss ([4]; intact and amidated peptide radioimmunoassays) of the same compound?
Its Peptide loss is 4 %/day.

What about the “final minipump concentration at the end of the study” value ([4]; start 75 μM) of the same compound?
Its value is “approximately 40 μM”.

Which “increase of ADCYAP1 transcripts, dorsal BNST” value [5] does the source give for C[C@]12CC[C@@H]3c4ccc(O)cc4CC[C@H]3[C@@H]1CC[C@@H]2O [estradiol] here?
Its value is 2.1 fold.

And the “increase of ADCYAP1 transcripts, ventral BNST” value [5]?
The value was 3.4 fold.

And the “increase of ADCYAP1R1 mRNA, dorsal BNST” value [6]?
The value was 1.5 fold and 1.6 fold.

With “PACAP38: 38-amino acid peptide form of PACAP (American Peptide Co.) (HSDGIFTDSYSRYRKQMAVKKYLAAVLGKRYKQRVKNK; ends and bridges not checked)” as the compound, how does the “anxiety-like behavior on elevated-plus maze as measured by open arm time” value [7] read?
The value was “anxiogenic; also recorded: decreased open arm times”.

And the “locomotor activity as measured by total number of arm entries” value [7]?
Its value is “not affected; also recorded: not changed”.

And the “weight loss compared to vehicle-infused rats” value [8]?
Its value is “significantly more weight loss”.

What about the weight loss ([8]; compared to vehicle controls) of the same compound?
Its weight loss is “approximately 8 % of body weight”.
